Data taken from ChEMBL document CHEMBL1155350, “Antitubercular activity of alpha,omega-diaminoalkanes, H2N(CH2)nNH2” (Bioorg Med Chem Lett, 2009).
≈ marks a conversion by molar mass, not a printed value. Calls of active or inactive are those of the source. The rule behind the calls is not given here.

Experiments:
[1] = Cytotoxicity against Mycobacterium bovis Bacillus Calmette-Guerin infected mouse J774 macrophage assessed as cell viability at 1 ug/mL after 48 hrs by MTT assay; type: cell-based; settings: J774 macrophage cells infected with Mycobacterium bovis BCG, read-out: Activity
[2] = Cytotoxicity against mouse J774 macrophage assessed as cell viability at 10 ug/mL after 48 hrs by MTT assay; type: cell-based; settings: J774 macrophage cells, read-out: Activity
[3] = Cytotoxicity against Mycobacterium bovis Bacillus Calmette-Guerin infected mouse J774 macrophage assessed as cell viability at 10 ug/mL after 48 hrs by MTT assay; type: cell-based; settings: J774 macrophage cells infected with Mycobacterium bovis BCG, read-out: Activity
[4] = Cytotoxicity against Mycobacterium bovis Bacillus Calmette-Guerin infected mouse J774 macrophage assessed as cell viability at 100 ug/mL after 48 hrs by MTT assay; type: cell-based; settings: J774 macrophage cells infected with Mycobacterium bovis BCG, read-out: Activity
[5] = Cytotoxicity against mouse J774 macrophage assessed as cell viability at 100 ug/mL after 48 hrs by MTT assay; type: cell-based; settings: J774 macrophage cells, read-out: Activity
[6] = Cytotoxicity against mouse J774 macrophage assessed as cell viability at 1 ug/mL after 48 hrs by MTT assay; type: cell-based; settings: J774 macrophage cells, read-out: Activity
[7] = system: Mycobacterium tuberculosis; test: Antimicrobial activity against Mycobacterium tuberculosis H37Rv ATCC 27294 assessed as minimum inhibitory concentration […] by micro plate Alamar blue assay; type: functional

NCCN [ETHYLENEDIAMINE]
viability at 48 h, 1 ug/mL [1]: 35%
viability at 48 h, 10 ug/mL [2]: 100%
viability at 48 h, 10 ug/mL [3]: 23%
viability at 48 h, 100 ug/mL [4]: 29%
viability at 48 h, 100 ug/mL [5]: 100%
viability at 48 h, 1 ug/mL [6]: 100%
MIC [7]: inactive

NCCCCCCCN
viability at 48 h, 1 ug/mL [1]: 79%
viability at 48 h, 10 ug/mL [2]: 100%
viability at 48 h, 10 ug/mL [3]: 78%
viability at 48 h, 100 ug/mL [4]: 70%
viability at 48 h, 100 ug/mL [5]: 100%
viability at 48 h, 1 ug/mL [6]: 100%
MIC [7]: inactive

NCCCCCCCCN [DIAMINOOCTANE]
viability at 48 h, 1 ug/mL [1]: 68%
viability at 48 h, 10 ug/mL [2]: 100%
viability at 48 h, 10 ug/mL [3]: 64%
viability at 48 h, 100 ug/mL [4]: 64%
viability at 48 h, 100 ug/mL [5]: 95%
viability at 48 h, 1 ug/mL [6]: 100%
MIC [7]: inactive

NCCCCCCCCCCCCN
viability at 48 h, 1 ug/mL [1]: 56%
viability at 48 h, 10 ug/mL [2]: 100%
viability at 48 h, 10 ug/mL [3]: 49%
viability at 48 h, 100 ug/mL [4]: 38%
viability at 48 h, 100 ug/mL [5]: 100%
viability at 48 h, 1 ug/mL [6]: 100%
MIC [7]: 2.5 µg/mL (≈ 12.5 µM)

NCCCCCCCCCCN
viability at 48 h, 1 ug/mL [1]: 56%
viability at 48 h, 10 ug/mL [2]: 100%
viability at 48 h, 10 ug/mL [3]: 34%
viability at 48 h, 100 ug/mL [4]: 42%
viability at 48 h, 100 ug/mL [5]: 94%
viability at 48 h, 1 ug/mL [6]: 100%
MIC [7]: 3.12 µg/mL (≈ 18.1 µM)

NCCCCCCCCCN
viability at 48 h, 1 ug/mL [1]: 100%
viability at 48 h, 10 ug/mL [2]: 100%
viability at 48 h, 10 ug/mL [3]: 100%
viability at 48 h, 100 ug/mL [4]: 71%
viability at 48 h, 100 ug/mL [5]: 100%
viability at 48 h, 1 ug/mL [6]: 100%
MIC [7]: 3.12 µg/mL (≈ 19.7 µM)

NCCCCCN
viability at 48 h, 1 ug/mL [1]: 100%
viability at 48 h, 10 ug/mL [2]: 100%
viability at 48 h, 10 ug/mL [3]: 100%
viability at 48 h, 100 ug/mL [4]: 98%
viability at 48 h, 100 ug/mL [5]: 100%
viability at 48 h, 1 ug/mL [6]: 100%
MIC [7]: inactive

NCCCCN [PUTRESCINE]
viability at 48 h, 1 ug/mL [1]: 100%
viability at 48 h, 10 ug/mL [2]: 100%
viability at 48 h, 10 ug/mL [3]: 90%
viability at 48 h, 100 ug/mL [4]: 82%
viability at 48 h, 100 ug/mL [5]: 100%
viability at 48 h, 1 ug/mL [6]: 100%
MIC [7]: inactive

NCCCN
viability at 48 h, 1 ug/mL [1]: 100%
viability at 48 h, 10 ug/mL [2]: 100%
viability at 48 h, 10 ug/mL [3]: 94%
viability at 48 h, 100 ug/mL [4]: 89%
viability at 48 h, 100 ug/mL [5]: 100%
viability at 48 h, 1 ug/mL [6]: 100%
MIC [7]: inactive

NCCCCCCN
viability at 48 h, 1 ug/mL [1]: 98%
viability at 48 h, 10 ug/mL [2]: 100%
viability at 48 h, 10 ug/mL [3]: 92%
viability at 48 h, 100 ug/mL [4]: 76%
viability at 48 h, 100 ug/mL [5]: 100%
viability at 48 h, 1 ug/mL [6]: 100%
MIC [7]: inactive

NCCCCCCCCCCCN
viability at 48 h, 1 ug/mL [1]: 58%
viability at 48 h, 10 ug/mL [2]: 100%
viability at 48 h, 10 ug/mL [3]: 53%
viability at 48 h, 100 ug/mL [4]: 40%
viability at 48 h, 100 ug/mL [5]: 100%
viability at 48 h, 1 ug/mL [6]: 100%
MIC [7]: 3.12 µg/mL (≈ 16.7 µM)

CC[C@@H](CO)NCCN[C@@H](CC)CO [ETHAMBUTOL]
viability at 48 h, 1 ug/mL [1]: 92%
viability at 48 h, 10 ug/mL [2]: 93%
viability at 48 h, 10 ug/mL [3]: 88%
viability at 48 h, 100 ug/mL [4]: 85%
viability at 48 h, 100 ug/mL [5]: 82%
viability at 48 h, 1 ug/mL [6]: 100%
